Measurements reported in paper PMC11845761, “Intestinal human carboxylesterase 2 (CES2) expression rescues drug metabolism and most metabolic syndrome phenotypes in global Ces2 cluster knockout mice” (Acta Pharmacologica Sinica, 2024).
Like-named read-outs stand apart in the source and are kept apart here.

Columns and labels:
[1] = Plasma pharmacokinetics of vinorelbine and deacetylvinorelbine after oral vinorelbine in CES2-modified mice; format: in vivo, mouse; details: mouse, plasma, oral vinorelbine 10 mg/kg, plasma; for AUC(0-t): male, po, 10 mg/kg, read-out: AUC0-4h; for Cmax: read-out: Cmax; for Tmax: read-out: Tmax
Method: (§1) For capecitabine 2-h experiments, 6–7 female mice received oral capecitabine (500 mg/kg, 10 μL/g), and tail vein blood samples were collected at 0.125, 0.25, 0.5 and 1 h after drug administration. For the vinorelbine 4-h experiment, 6-7 male mice received vinorelbine intravenously (10 mg/kg, 5 μL/g) or orally (10 mg/kg, 10 μL/g) using a blunt-ended needle. Tail vein blood samples were collected at 0.125, 0.25, 0.5, 1 and 2 h after drug administration. […] At the last time point in each experiment (2 or 4 h), mice were anesthetized with 5% isoflurane and blood was collected by cardiac puncture. […] Plasma was isolated from the blood by centrifugation at 9000 × g for 6 min at 4 °C, and the plasma fraction was collected and stored at −30 °C until analysis.
(§2) Concentrations of capecitabine (and its metabolites) and vinorelbine (and its metabolite) in mouse plasma samples and organ homogenates were determined using two independent validated high-performance liquid chromatography-tandem mass spectrometry assays.
(§3) Pharmacokinetic parameters were calculated by non-compartmental methods using the PK solver software. […] Differences were considered statistically significant when P < 0.05. All data are presented as mean ± SD.

[2] = Plasma pharmacokinetics of vinorelbine and deacetylvinorelbine after i.v. vinorelbine in CES2-modified mice; details: male, mouse, plasma, iv, 10 mg/kg, AUC0-4h, i.v. vinorelbine 10 mg/kg
Method: In order to minimize variation among individuals, mice were fasted for 3 h before drug was administered orally or intravenously. […] For the vinorelbine 4-h experiment, 6-7 male mice received vinorelbine intravenously (10 mg/kg, 5 μL/g) or orally (10 mg/kg, 10 μL/g) using a blunt-ended needle. […] Time points of termination were chosen to allow both reasonable assessment of the plasma exposure of the compound and its main metabolites, and adequate measurement of tissue concentrations. In order to minimize the generation and use of mice, and as no pronounced sex differences were expected, female mice were used for the capecitabine studies and male mice for the vinorelbine studies. Tail vein blood sample collection (~50 μL) was performed using microvettes containing dipotassium-EDTA. All blood samples were rapidly placed on ice to limit any ongoing hydrolysis. At the last time point in each experiment (2 or 4 h), mice were anesthetized with 5% isoflurane and blood was collected by cardiac puncture. Cardiac puncture blood samples (600–800 μL) were collected in Eppendorf tubes containing heparin as an anticoagulant. The mice were then sacrificed by cervical dislocation and brain, liver, kidney, lung, small intestine and testis were rapidly removed. Plasma was isolated from the blood by centrifugation at 9000 × g for 6 min at 4 °C, and the plasma fraction was collected and stored at −30 °C until analysis. Organs were homogenized with 4% (w/v) bovine serum albumin and stored at −30 °C until analysis. Relative metabolite-to-parental drug ratio after drug administration was calculated by determining metabolite tissue concentration relative to corresponding parental drug concentration at the last time point.
as §2
Pharmacokinetic parameters were calculated by non-compartmental methods using the PK solver software. The area under the plasma concentration-time curve (AUC) was calculated using the trapezoidal rule, without extrapolating to infinity. The peak plasma concentration (Cmax) and the time of maximum plasma concentration (Tmax) were estimated from the original (individual mouse) data. One-way analysis of variance (ANOVA) was used when multiple groups were compared and the Tukey’s test post hoc correction was used to accommodate multiple testing. The two-sided unpaired Student’s t-test was used when treatments or differences between two specific groups were compared. Kruskal-Wallis rank test was used for semi-quantitative assessment for (H&E)-staining of white adipose tissue and Oil Red O-staining of liver. All statistical analyses were performed using the software GraphPad Prism 8 (GraphPad Software Inc., La Jolla, CA, USA). All the linear data were log-transformed before statistical tests were applied. Differences were considered statistically significant when P < 0.05. All data are presented as mean ± SD.

[3] = Tissue concentrations of vinorelbine and deacetylvinorelbine 4 h after oral vinorelbine in CES2-modified mice; format: in vivo, mouse; details: male, mouse, oral, 10 mg/kg, oral vinorelbine 10 mg/kg
Method: as §1, §2, §3

[4] = Tissue concentrations of vinorelbine and deacetylvinorelbine 4 h after i.v. vinorelbine in CES2-modified mice; format: in vivo, mouse; details: male, mouse, intravenous, 10 mg/kg, i.v. vinorelbine 10 mg/kg
Method: as §1, §2, §3

[5] = design: method as in PMID 11822766; details: 24 patients; oral vinorelbine 80 mg/m^2; cited from earlier work
[6] = colon, male Ces2^–/– mice, read-out: Ccolon (colon concentration)
[7] = colon, male Ces2^–/–A mice, read-out: Ccolon (colon concentration)
[8] = colon, male Ces2^–/–V mice, read-out: Ccolon (colon concentration)
[9] = colon, male wild-type mice, read-out: Ccolon (colon concentration)
[10] = liver, male Ces2^–/– mice, read-out: Cliver (liver concentration)
[11] = liver, male Ces2^–/–A mice, read-out: Cliver (liver concentration)
[12] = liver, male Ces2^–/–V mice, read-out: Cliver (liver concentration)
[13] = liver, male wild-type mice, read-out: Cliver (liver concentration)
[14] = small intestine contents, male Ces2^–/– mice, read-out: CSIC (small intestine contents concentration)
[15] = small intestine contents, male Ces2^–/–A mice, read-out: CSIC (small intestine contents concentration)
[16] = small intestine contents, male Ces2^–/–V mice, read-out: CSIC (small intestine contents concentration)
[17] = small intestine contents, male wild-type mice, read-out: CSIC (small intestine contents concentration)
[18] = small intestine tissue, male Ces2^–/– mice, read-out: CSI (small intestine tissue concentration)
[19] = small intestine tissue, male Ces2^–/–A mice, read-out: CSI (small intestine tissue concentration)
[20] = small intestine tissue, male Ces2^–/–V mice, read-out: CSI (small intestine tissue concentration)
[21] = small intestine tissue, male wild-type mice, read-out: CSI (small intestine tissue concentration)

## CCC1=C[C@@H]2CN(C1)Cc1c([nH]c3ccccc13)[C@@](C(=O)OC)(c1cc3c(cc1OC)N(C)[C@H]1[C@@](O)(C(=O)OC)[C@H](OC(C)=O)[C@]4(CC)C=CCN5CC[C@]31[C@@H]54)C2 [Vinorelbine, reference compound]
[1]; male Ces2^–/– mice
  AUC(0-t): 491 ± 135 ng·h/mL
  Cmax: 188 ± 63 ng/mL
  Tmax: 1.9 ± 1.9 h
[1]; male Ces2^–/–A mice
  AUC(0-t): 730 ± 270 ng·h/mL
  Cmax: 333 ± 99 ng/mL
  Tmax: 1.3 ± 0.9 h
[1]; male Ces2^–/–V mice
  AUC(0-t): 585 ± 186 ng·h/mL
  Cmax: 243 ± 110 ng/mL
  Tmax: 2.4 ± 1.5 h
[1]; male wild-type mice
  AUC(0-t): 362 ± 81 ng·h/mL
  Cmax: 149 ± 59 ng/mL
  Tmax: 1.7 ± 0.7 h
[2]; male Ces2^–/– mice
  AUC(0-t): 6040 ± 1950 ng·h/mL
[2]; male Ces2^–/–A mice
  AUC(0-t): 5950 ± 3250 ng·h/mL
[2]; male Ces2^–/–V mice
  AUC(0-t): 9790 ± 5670 ng·h/mL
[2]; male wild-type mice
  AUC(0-t): 8140 ± 4780 ng·h/mL
[3]; [6]
  concentration at 4 h: 581 ± 175 ng/g
[3]; [7]
  concentration at 4 h: 788 ± 189 ng/g
[3]; [8]
  concentration at 4 h: 608 ± 203 ng/g
[3]; [9]
  concentration at 4 h: 348 ± 136 ng/g
[3]; [10]
  concentration at 4 h: 8470 ± 8150 ng/g
[3]; [11]
  concentration at 4 h: 8520 ± 3440 ng/g
[3]; [12]
  concentration at 4 h: 8300 ± 2000 ng/g
[3]; [13]
  concentration at 4 h: 1530 ± 409 ng/g
[3]; [14]
  concentration at 4 h: 159000 ± 46700 ng/g
[3]; [15]
  concentration at 4 h: 177000 ± 73000 ng/g
[3]; [16]
  concentration at 4 h: 114000 ± 19400 ng/g
[3]; [17]
  concentration at 4 h: 77000 ± 29300 ng/g
[3]; [18]
  concentration at 4 h: 18300 ± 4300 ng/g
[3]; [19]
  concentration at 4 h: 18100 ± 3650 ng/g
[3]; [20]
  concentration at 4 h: 15600 ± 6980 ng/g
[3]; [21]
  concentration at 4 h: 10800 ± 3700 ng/g
[4]; [6]
  concentration at 4 h: 5620 ± 3000 ng/g
[4]; [7]
  concentration at 4 h: 5780 ± 3090 ng/g
[4]; [8]
  concentration at 4 h: 6740 ± 1470 ng/g
[4]; [9]
  concentration at 4 h: 2360 ± 692 ng/g
[4]; [10]
  concentration at 4 h: 23400 ± 6110 ng/g
[4]; [11]
  concentration at 4 h: 24300 ± 3720 ng/g
[4]; [12]
  concentration at 4 h: 24700 ± 4450 ng/g
[4]; [13]
  concentration at 4 h: 12200 ± 4960 ng/g
[4]; [14]
  concentration at 4 h: 40100 ± 25500 ng/g
[4]; [15]
  concentration at 4 h: 47200 ± 30900 ng/g
[4]; [16]
  concentration at 4 h: 48400 ± 27000 ng/g
[4]; [17]
  concentration at 4 h: 27700 ± 13400 ng/g
[4]; [18]
  concentration at 4 h: 5920 ± 1350 ng/g
[4]; [19]
  concentration at 4 h: 5600 ± 644 ng/g
[4]; [20]
  concentration at 4 h: 7680 ± 2240 ng/g
[4]; [21]
  concentration at 4 h: 3470 ± 858 ng/g
[5]
  plasma Cmax: 133.4 ± 42.3 ng/mL
